Tolerance factor data for 3 compounds are collected here from patent publication US10508285B2, “Method for screening of genes conferring increased tolerance to herbicides” (priority 2014, dated 2019).

Molecules are shown by their SMILES.

Series [1] deals with Cytochrome P450 wildtype (Zea mays). Description: Herbicide tolerance of transiently transformed tobacco leaf discs, PSII yield (PAM imaging). The conditions noted are these: IC50 of PSII yield inhibition, Nicotiana benthamiana leaf discs expressing Zea mays Cytochrome P450 wildtype versus empty vector-transformed leaf discs.
Series [2] concerns the target T1, Transketolase wildtype (Spinacia oleracea) (Spinacia oleracea, UniProt O20250).
T1 construct: expressed in transfected cells; host or cells: Nicotiana benthamiana leaves, Agrobacterium tumefaciens GV2260 infiltration
T1 sequence (O20250 67-741): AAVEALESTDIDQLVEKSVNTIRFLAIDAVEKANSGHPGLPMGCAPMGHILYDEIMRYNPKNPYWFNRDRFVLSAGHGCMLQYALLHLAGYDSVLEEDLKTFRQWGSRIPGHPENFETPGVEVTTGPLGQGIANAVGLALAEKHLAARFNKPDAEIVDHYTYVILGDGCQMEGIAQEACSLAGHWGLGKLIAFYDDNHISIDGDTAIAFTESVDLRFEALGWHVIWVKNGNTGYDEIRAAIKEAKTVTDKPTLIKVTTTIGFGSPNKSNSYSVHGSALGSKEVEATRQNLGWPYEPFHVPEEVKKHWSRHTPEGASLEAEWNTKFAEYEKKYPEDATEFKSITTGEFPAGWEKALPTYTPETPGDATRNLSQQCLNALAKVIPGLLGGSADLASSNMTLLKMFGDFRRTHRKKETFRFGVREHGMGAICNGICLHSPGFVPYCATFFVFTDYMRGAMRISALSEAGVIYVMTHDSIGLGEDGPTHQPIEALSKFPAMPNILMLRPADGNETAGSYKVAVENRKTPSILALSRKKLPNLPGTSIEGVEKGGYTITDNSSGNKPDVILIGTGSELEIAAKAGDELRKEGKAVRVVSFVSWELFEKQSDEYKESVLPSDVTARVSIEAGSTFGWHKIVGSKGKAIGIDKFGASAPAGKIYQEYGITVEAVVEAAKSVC
The description is as above. The conditions noted are these: IC50 of PSII yield inhibition, Nicotiana benthamiana leaf discs expressing Spinacia oleracea Transketolase wildtype versus empty vector-transformed leaf discs. Format: cell-based.

Series [3] deals with Protoporphyrinogen IX Oxidase (PPO) wildtype. The series is described as above. The conditions noted are these: IC50 of PSII yield inhibition, Nicotiana benthamiana leaf discs expressing Alopecurus myosuroides PPO wildtype versus empty vector-transformed leaf discs. Format: cell-based.
Series [4] concerns Protoporphyrinogen IX Oxidase (PPO) L397Q_F420M. It is filed as cell-based, Amaranthus tuberculatus.

`CC(C)N1C(=O)c2ccccc2NS1(=O)=O` [Bentazon]: in series [1], the Tolerance factor amounted to 13.4. In turn, `C/C=C1/CC2=C(C(=O)OC2=O)[C@H](CCC)[C@H](O)C(=O)C[C@@H]1O` [Cornexistin] had a Tolerance factor in series [2] of 3.6. Take `CC(C)N(C)S(=O)(=O)NC(=O)c1cc(-n2c(=O)cc(C(F)(F)F)n(C)c2=O)c(F)cc1Cl` [Saflufenacil]: the Tolerance factor in series [3] was 177; in series [4], 150.
